Reference: patent US8309685B2 (Celgene Avilomics Research, Inc., priority 2007, dated 2012)
Where two headings read alike, the source gives them in different places.

Columns and labels:
[1] = molecular target: T1, wild type HCV NS3/4A 1b protease enzyme (Hepatitis C virus genotype 1b, UniProt P26663); test: HCV Protease FRET Assay (IC50_APP), wild type; format: biochemical
T1 construct: 10× stocks of NS3/4A protease enzyme from Bioenza (Mountain View, Calif.); purchased Bioenza (Mountain View, Calif.)

[2] = molecular target: T2, C159S mutant of the HCV NS3/4A 1b protease enzyme (Hepatitis C virus genotype 1b, UniProt P26663, C1185S); test: HCV Protease FRET Assay (IC50_APP), C159S mutant; format: biochemical; settings: apparent IC50, C159S mutant
T2 construct: 10× stocks of NS3/4A protease enzyme from Bioenza (Mountain View, Calif.); purchased Bioenza (Mountain View, Calif.)
Experimental: (§1) HCV Protease FRET Assay for WT and Mutated NS3/4A 1b Enzymes (IC50—APP).
(§2) The following protocol was used to generate “apparent” IC50 (IC50—APP) values as depicted in Table 6, below. […] 5 μL of each enzyme were added to Corning (#3575) 384-well, black, microtiter plates (Corning, N.Y.) after spotting a 0.5 μL volume of 50% DMSO and serially diluted compounds prepared in 50% DMSO. Protease reactions were immediately started after enzyme addition with the addition of 45 μL of the FRET substrate and monitored for 60-90 minutes at λex485/λem520 in a Synergy^4 plate reader from BioTek (Winooski, Vt.). At the conclusion of each assay, progress curves from each well were examined for linear reaction kinetics and fit statistics (R^2, 95% confidence intervals, absolute sum of squares).
(§3) The compound numbers correspond to the compound numbers in Table 3. […] ;

[3] = molecular target: T3, R155K mutant of the HCV NS3/4A 1b protease enzyme (Hepatitis C virus genotype 1b, UniProt P26663, R1181K); test: HCV Protease FRET Assay (IC50_APP), R155K mutant; format: biochemical; settings: apparent IC50, R155K mutant; read-out: IC50_APP, HCV R155K
T3 construct: 10× stocks of NS3/4A protease enzyme from Bioenza (Mountain View, Calif.); purchased Bioenza (Mountain View, Calif.)
Experimental: as §1, §2, §3

[4] = test system: HCV RNA replicon in cell line ET (luc-ubi-neo/ET), human Huh7 hepatoma; test: Luciferase Assay (Example 35), replicon-derived luciferase activity; format: cell-based; settings: Hepatitis C virus, Huh-7; assay described in Example 35
Experimental: The compounds were assayed to evaluate the antiviral activity and cytotoxicity of compounds using replicon-derived luciferase activity. This assay used the cell line ET (luc-ubi-neo/ET), which is a human Huh7 hepatoma cell line that contains an HCV RNA replicon with a stable luciferase (Luc) reporter and cell culture-adaptive mutations. The ET cell line was grown in a 5% CO2 incubator at 37° C. in Dulbecco's modified essential media (DMEM) supplemented with 2 mM L-glutamine, nonessential amino acids, 100 U of penicillin/ml, 100 μg of streptomycin/mL, and 10% fetal bovine serum. G418 (Geneticin; Invitrogen) was added at a final concentration of 400 ug//mL.
All cell culture reagents were obtained from Invitrogen (Carlsbad). Cells were trypsinized (1% trypsin:EDTA) and plated out at 5×10^3 cells/well in white 96-well assay plates (Costar) dedicated to cell number (cytotoxicity) or antiviral activity assessments. Test compounds were added at six 3-fold concentrations each and the assay was run in DMEM, 5% FBS, 1% pen-strep, 1% glutamine, 1% non essential amino acid. Human interferon alpha-2b (PBL Biolabs, New Brunswick, N.J.) was included in each run as a positive control compound. Cells were processed 72 hr post test compound addition when the cells were still subconfluent. Antiviral activity was measured by analyzing replicon-derived luciferase activity using the Steady-Glo Luciferase Assay System (Promega, Madison, Wis.) according to manufacturer's instruction. The number of cells in each well was determined by Cell Titer Blue Assay (Promega). Compound profile was derived by calculating applicable EC50 (effective concentration inhibiting virus replication by 50%), EC90 (effective concentration inhibiting virus replication by 90%), IC50 (concentration decreasing cell viability by 50%) and SI50 (selective index: […]) values.

[5] = molecular target: T4, D168A mutant of the HCV NS3/4A 1b protease enzyme (Hepatitis C virus genotype 1b, UniProt P26663, D1194A); test: HCV Protease FRET Assay (IC50_APP), D168A mutant; format: biochemical; settings: apparent IC50, D168A mutant; read-out: IC50_APP, HCV D168A
T4 construct: 10× stocks of NS3/4A protease enzyme from Bioenza (Mountain View, Calif.); purchased Bioenza (Mountain View, Calif.)

[6] = test system: HCV RNA replicon in cell line ET (luc-ubi-neo/ET), human Huh7 hepatoma; test: Method A: HCV RNA replicon antiviral assay (luciferase, ET cell line); format: cell-based, Hepatitis C virus; settings: Hepatitis C virus, Huh-7
How it was run: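 ET replicon cells (Huh7 carrying luciferase-reporter HCV replicon) plated at 5×10^3 cells/well and exposed 72 hr to six 3-fold drug concentrations in DMEM/5% FBS. Replicon luciferase gave EC50/EC90; CytoTox-1 cell counts gave IC50 (viability); […]. Interferon alpha-2b served as positive control.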

[7] = molecular target: T5, HCV NS3/4A wild type (genotype 1b) (Hepatitis C virus genotype 1b, UniProt P26663); test: Mass spectrometric analysis (MALDI-TOF) of covalent modification, HCV wild type; format: binding; settings: 10-fold excess of compound to protein, 1 hr
T5 construct: mass spectroscopic analysis of HCV NS3/4A wild-type protease domain; purchased Bioenza Calif
Experimental: Mass spectrometric analysis of HCV wild type or HCV variant C159S in the presence of test compound was performed. 100 pmols of HCV wild type (Bioenza Calif.) was incubated with compound for 1 hr and 3 hrs at 10-fold access of […] to protein. 1 ul aliquots of the samples (total volume of 4.24 ul) were diluted with 10 ul of 0.1% TFA prior to micro C4 ZipTipping directly onto the MALDI target using Sinapinic acid as the desorption matrix (10 mg/ml in 01% TFA:Acetonitrile 50:50). Analyses were performed on a Shimadzu Biotech Axima TOF^2 (Shimadzu Instruments) matrix-assisted-laser desorption/ionization Time-of-Flight (MALDI-TOF) mass spectrometer. The same procedure was carried out on 100 pmols of HCV C159S mutant of HCV protease for 3 hrs at 10-fold excess of (I-3) to protein.
As depicted in FIGS. 2, 3, 4, and 5, mass spectrometric analysis of HCV wild type or HCV mutants in the presence of test compound (I-3) was performed. […] 1 ul aliquots of the samples were diluted with 10 ul of 0.1% TFA prior to micro C4 ZipTipping directly onto the MALDI target using Sinapinic acid as the desorption matrix (10 mg/ml in 0.1% TFA:Acetonitrile 50:50).
Mass spectrometric analysis of HCV wild type (genotype 1b) in the presence of test compounds I-73 and I-75 was performed using the following protocol: HCV NS3/4A wild type (wt) was incubated for 1 hr at a 10× fold access of test compound to protein. 2 ul aliquots of the samples were diluted with 10 ul of 0.1% TFA prior to micro C4 ZipTipping directly onto the MALDI target using Sinapinic acid as the desorption matrix (10 mg/ml in 0.1% TFA:Acetonitrile 50:50). For intact protein mass measurement the instrument was set in Linear mode using a pulsed extraction setting of 24,500 and apomyoglobin as the standard to calibrate the instrument.
Mass spectrometric analysis of HCV NS3/4A genotypes 1a, 1b, 2a, and 3a in the presence of test compound I-96 was performed using the following protocol: HCV NS3/4A was incubated for 3 hr at a 10× fold access of test compound to protein. […]

[8] = molecular target: T6, A156T mutant of the HCV NS3/4A 1b protease enzyme (Hepatitis C virus genotype 1b, UniProt P26663, A1182T); test: HCV Protease FRET Assay (IC50_APP), A156T mutant; format: biochemical; settings: apparent IC50, A156T mutant; read-out: IC50_APP, HCV A156T
T6 construct: 10× stocks of NS3/4A protease enzyme from Bioenza (Mountain View, Calif.); purchased Bioenza (Mountain View, Calif.)

[9] = molecular target: T4, D168A mutant of the HCV NS3/4A 1b protease enzyme; test: HCV Protease FRET Assay (IC50), D168A mutant; format: biochemical; settings: read-out: Inhibition, HCV D168A; D168A enzyme, FRET assay
[10] = molecular target: T6, A156T mutant of the HCV NS3/4A 1b protease enzyme; test: HCV Protease FRET Assay (IC50), A156T mutant; format: biochemical; settings: read-out: Inhibition, HCV A156T; A156T enzyme, FRET assay
[11] = test system: cell line ET (luc-ubi-neo/ET), human Huh7 hepatoma cell line; test: Method A: cytotoxicity in ET replicon cells (CytoTox-1); format: cell-based; settings: concentration decreasing cell viability by 50%, 72 hr
How it was run: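 ET cells (Huh7 carrying luciferase HCV replicon), 5×10^3 cells/well, given six 3-fold compound concentrations in DMEM with 5% FBS. After 72 hr, while subconfluent, cell number was measured with CytoTox-1 reagent. Interferon alpha-2b served as positive control.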

[12] = molecular target: T1, wild type HCV NS3/4A 1b protease enzyme; test: biochemical; format: biochemical; settings: read-out: Inhibition, WT; WT enzyme, FRET assay
[13] = read-out: IC50_APP, WT, apparent IC50, wild type NS3/4A 1b
[14] = assay described in Example 22, read-out: Replicon (IC50)

Compound | IC50 [1, 13] | IC50 [2] | IC50 [3] | EC50 [4] | IC50 [5] | IC50 [1] | IC90 ([6]; assay described in Example 22) | IC50 [6, 14] | Covalent modification of HCV wild type by mass spectrometry [7] | IC50 [8] | IC50 [9] | IC50 [10] | Inhibition, Cytotoxicity [11] | IC50 ([6]; Replicon, assay of Example 22, 72 hr, read-out: Inhibition, Replicon) | IC50 [12]
C=CC1CC1(NC(=O)C1CC(n2nnc(-c3ccc(OC)cc3)n2)CN1C(=O)C(CCC(=O)C=C(C)C)NC(=O)OC(C)(C)C)C(=O)NS(=O)(=O)C1CC1 (stereo not drawn) [Compound I-107] | < 10 nM | 10 to 100 nM | 1000 to 10000 nM | 100 to 1000 nM | 1000 to 10000 nM | – | – | – | – | – | – | – | – | – | –
C=CC(=O)NC[C@H](NC(=O)OC(C)(C)C)C(=O)N1C[C@H](Oc2nc3ccccc3nc2-c2cccs2)C[C@H]1C(=O)N[C@]1(C(=O)NS(=O)(=O)C2CC2)C[C@H]1C=C [Compound I-109] | < 10 nM | 100 to 1000 nM | 100 to 1000 nM | 100 to 1000 nM | 1000 to 10000 nM | – | – | – | – | – | – | – | – | – | –
C=C[C@@H]1C[C@]1(NC(=O)[C@@H]1C[C@@H](Oc2cc(-c3ccccc3)nc3cc(OC)ccc23)CN1C(=O)[C@@H](NC(=O)OC(C)(C)C)[C@@H](C)OC(=O)/C=C/C)C(=O)NS(=O)(=O)C1CC1 [Compound I-50, (E)-((2R,3S)-3-(tert-butoxycarbonylamino)-4-((2S,4R)-2-((1R,2S)-1-(cyclopropylsulfonylcarbamoyl)-2-vinylcyclopropylcarbamoyl)-4-(7-methoxy-2-phenylquinolin-4-yloxy)pyrrolidin-1-yl)-4-oxobutan-2-yl)but-2-enoate] | – | – | – | – | 100 to 1000 nM | < 10 nM | < 10 nM | < 10 nM | measurable covalent modification | 100 to 1000 nM | – | – | – | – | –
C=CC(=O)N[C@H](CC(C)C)C(=O)N1C[C@H](Oc2nccc3cc(OC)ccc23)C[C@H]1C(=O)N[C@]1(C(=O)NS(=O)(=O)C2CC2)C[C@H]1C=C [Compound I-105] | < 10 nM | 100 to 1000 nM | 10 to 100 nM | 10 to 100 nM | 100 to 1000 nM | – | – | – | – | < 10 nM | – | – | – | – | –
C=CC(=O)N[C@H](Cc1ccccc1)C(=O)N1C[C@H](Oc2nccc3cc(OC)ccc23)C[C@H]1C(=O)N[C@]1(C(=O)NS(=O)(=O)C2CC2)C[C@H]1C=C [Compound I-106] | < 10 nM | 100 to 1000 nM | 10 to 100 nM | 10 to 100 nM | 100 to 1000 nM | – | – | – | – | < 10 nM | – | – | – | – | –
C=CC(=O)NCC(NC(=O)OC(C)(C)C)C(=O)N1CC(n2nnc(-c3ccc(OC)cc3)n2)CC1C(=O)NC1(C(=O)NS(=O)(=O)C2CC2)CC1C=C (stereo not drawn) [Compound I-108] | < 10 nM | 100 to 1000 nM | 1000 to 10000 nM | 100 to 1000 nM | 1000 to 10000 nM | – | – | – | – | – | – | – | – | – | –
C=C[C@@H]1C[C@]1(NC(=O)[C@@H]1C[C@@H](Oc2cc(-c3ccccc3)nc3cc(OC)ccc23)CN1C(=O)[C@H](CN(C)C(=O)[C@H](Cl)c1ccccc1)NC(=O)OC(C)(C)C)C(=O)NS(=O)(=O)c1ccccc1 [Compound I-33, tert-butyl-(2S)-3-(2-chloro-N-methyl-2-phenylacetamido)-1-((2S,4R)-4-(7-methoxy-2-phenylquinolin-4-yloxy)-2-((1R,2S)-1-(phenylsulfonylcarbamoyl)-2-vinylcyclopropylcarbamoyl)pyrrolidin-1-yl)-1-oxopropan-2-ylcarbamate] | < 10 nM | – | – | – | 1000 to 10000 nM | – | 10 to 100 nM | < 10 nM | – | 1000 to 10000 nM | 100 to 1000 nM | 100 to 1000 nM | E (IC50≧10,000 nM) | < 10 nM | < 10 nM
C=C[C@@H]1C[C@]1(NC(=O)[C@@H]1C[C@@H](Oc2nc3ccccc3nc2-c2cccs2)CN1C(=O)[C@H](CCC(=O)C=C(C)C)NC(=O)OC(C)(C)C)C(=O)NS(=O)(=O)C1CC1 [Compound I-110] | < 10 nM | 10 to 100 nM | 100 to 1000 nM | 10 to 100 nM | 1000 to 10000 nM | – | – | – | – | – | – | – | – | – | –
